Where “and” joins values, the source holds several entries; their conditions need not be identical. Identical values can stand only once. Inconclusive results and toxic doses are left out. Cut-off read from the data, not from the text of the source: active = T/C of 150% or more; inactive = T/C below 125%.
System: L1210 leukemia ip in BDF1 mice, survival T/C
Assay: NCI In Vivo Anticancer Drug Screen. Data for tumor model L1210 Leukemia (intraperitoneal) in B6D2F1 (BDF1) mice
Settings: endpoint: mean survival time, higher = longer survival
Method in brief: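 Antitumor effect is assessed in tumor-bearing animals. Survival in the compound arm is compared with a vehicle-dosed control arm and expressed as their quotient.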

[1] = dose: 100.0 mg/kg/injection, schedule: Q01DX009 (ip), vehicle: Klucel (hydroxypropylcellulose) (HPC)
[2] = dose: 200.0 mg/kg/injection, schedule: Q01DX009 (ip), vehicle: Klucel (hydroxypropylcellulose) (HPC)
[3] = dose: 400.0 mg/kg/injection, schedule: Q01DX009 (ip), vehicle: Klucel (hydroxypropylcellulose) (HPC)
[4] = dose: 100.0 mg/kg/injection, schedule: Q01DX001 (ip), vehicle: saline with Tween-80
[5] = dose: 200.0 mg/kg/injection, schedule: Q01DX001 (ip), vehicle: saline with Tween-80
[6] = dose: 50.0 mg/kg/injection, schedule: Q01DX009 (ip), vehicle: saline with Tween-80
[7] = dose: 100.0 mg/kg/injection, schedule: Q01DX009 (ip), vehicle: saline with Tween-80
[8] = dose: 100.0 mg/kg/injection, schedule: Q04DX003 (ip), vehicle: saline with Tween-80
[9] = dose: 50.0 mg/kg/injection, schedule: Q01DX009 (ip), vehicle: saline
[10] = dose: 100.0 mg/kg/injection, schedule: Q01DX009 (ip), vehicle: saline
[11] = dose: 100.0 mg/kg/injection, schedule: Q04DX003 (ip), vehicle: saline
[12] = dose: 200.0 mg/kg/injection, schedule: Q04DX003 (ip), vehicle: saline
[13] = dose: 200.0 mg/kg/injection, schedule: Q01DX009 (ip), vehicle: saline with Tween-80
[14] = dose: 400.0 mg/kg/injection, schedule: Q01DX009 (ip), vehicle: saline with Tween-80
[15] = dose: 200.0 mg/kg/injection, schedule: Q04DX003 (ip), vehicle: saline with Tween-80
[16] = dose: 400.0 mg/kg/injection, schedule: Q01DX001 (ip), vehicle: saline with Tween-80
[17] = dose: 400.0 mg/kg/injection, schedule: Q04DX003 (ip), vehicle: saline with Tween-80

Measured: T/C

CC1(CCCCCBr)OCCO1
inactive: [1] 97 % of control | [2] 100 % of control | [3] 94 % of control

Cc1ccc(S(=O)(=O)N/N=C2/C(=O)C3CCC2C3)cc1 (stereo not drawn)
inactive: dose: 50.0 mg/kg/injection, schedule: Q01DX001 (ip), vehicle: saline with Tween-80 92 % of control | [4] 92 % of control | [5] 87 % of control

CC1CCC(=C(c2ccccc2)c2ccccc2)C(C)N1C (stereo not drawn)
inactive: dose: 25.0 mg/kg/injection, schedule: Q01DX009 (ip), vehicle: saline with Tween-80 98 % of control | dose: 25.0 mg/kg/injection, schedule: Q04DX003 (ip), vehicle: saline with Tween-80 107 % of control | [6] 98 % of control | dose: 50.0 mg/kg/injection, schedule: Q04DX003 (ip), vehicle: saline with Tween-80 96 % of control | [7] 90 % of control | [8] 98 % of control and 101 % of control

CCN(CC)CCCC(C)Nc1ccnc2ccc(-c3ccccc3)cc12 (stereo not drawn)
inactive: dose: 5.0 mg/kg/injection, schedule: Q01DX001 (ip), vehicle: saline 100 % of control | dose: 10.0 mg/kg/injection, schedule: Q01DX001 (ip), vehicle: saline 100 % of control | dose: 20.0 mg/kg/injection, schedule: Q01DX001 (ip), vehicle: saline 91 % of control | dose: 40.0 mg/kg/injection, schedule: Q01DX001 (ip), vehicle: saline 96 % of control | dose: 80.0 mg/kg/injection, schedule: Q01DX001 (ip), vehicle: saline 104 % of control

C[n+]1ccc(/C(N)=N/O)cc1
inactive: dose: 25.0 mg/kg/injection, schedule: Q01DX009 (ip), vehicle: saline 94 % of control and 106 % of control | [9] 104 % of control and 105 % of control | [10] 101 % of control and 107 % of control | dose: 100.0 mg/kg/injection, schedule: Q04DX002 (ip), vehicle: saline 105 % of control | [11] 101 % of control | dose: 200.0 mg/kg/injection, schedule: Q04DX002 (ip), vehicle: saline 107 % of control | [12] 97 % of control | dose: 400.0 mg/kg/injection, schedule: Q04DX002 (ip), vehicle: saline 96 % of control

Nc1ncnc2c1ncn2C1OC(COP(=O)(O)OP(=O)(O)OCC2OC([n+]3cccc(C=O)c3)C(O)C2O)C(O)C1O (stereo not drawn)
inactive: dose: 80.0 mg/kg/injection, schedule: Q01DX Z (ip), vehicle: saline 95 % of control | dose: 120.0 mg/kg/injection, schedule: Q01DX Z (ip), vehicle: saline 90 % of control | dose: 180.0 mg/kg/injection, schedule: Q01DX Z (ip), vehicle: saline 97 % of control | dose: 270.0 mg/kg/injection, schedule: Q01DX Z (ip), vehicle: saline 101 % of control

COc1ccccc1C(CC(=O)c1ccccc1)Sc1ccccc1N (stereo not drawn)
inactive: dose: 100.0 mg/kg/injection, schedule: Q01DX005 (ip), vehicle: Klucel (hydroxypropylcellulose) (HPC) 118 % of control and 89 % of control | [1] 93 % of control | dose: 130.0 mg/kg/injection, schedule: Q01DX005 (ip), vehicle: Klucel (hydroxypropylcellulose) (HPC) 97 % of control | dose: 200.0 mg/kg/injection, schedule: Q01DX005 (ip), vehicle: Klucel (hydroxypropylcellulose) (HPC) 115 % of control and 90 % of control | [2] 93 % of control | dose: 300.0 mg/kg/injection, schedule: Q01DX005 (ip), vehicle: Klucel (hydroxypropylcellulose) (HPC) 103 % of control | dose: 400.0 mg/kg/injection, schedule: Q01DX005 (ip), vehicle: Klucel (hydroxypropylcellulose) (HPC) 96 % of control and 87 % of control | [3] 86 % of control

O=[N+]([O-])c1ccc(NC(=S)NS(=O)(=O)c2ccccc2)c(Cl)c1
inactive: [1] 97 % of control | [2] 97 % of control | [3] 88 % of control

O=C(O)C1=C(C2CCCCC2)C(=O)c2ccccc21
inactive: dose: 75.0 mg/kg/injection, schedule: Q01DX001 (ip), vehicle: other 112 % of control | dose: 150.0 mg/kg/injection, schedule: Q01DX001 (ip), vehicle: other 93 % of control | dose: 300.0 mg/kg/injection, schedule: Q01DX001 (ip), vehicle: other 102 % of control

CCOc1ccc(/C=N/NC(=O)C(O)c2ccccc2)cc1OC (stereo not drawn)
inactive: [7] 97 % of control | [13] 92 % of control | [14] 90 % of control

CCOC(=O)C12CCC(=O)CC1(O)CCC1(C2)OCCCO1 (stereo not drawn)
inactive: dose: 100.0 mg/kg/injection, schedule: Q## X003 (ip), vehicle: saline 98 % of control | dose: 200.0 mg/kg/injection, schedule: Q## X003 (ip), vehicle: saline 104 % of control | dose: 400.0 mg/kg/injection, schedule: Q## X003 (ip), vehicle: saline 102 % of control

COc1ccc(Cl)cc1NC(=O)Oc1ccc(C(C)=O)cc1
inactive: [4] 100 % of control | [7] 97 % of control and 104 % of control | dose: 100.0 mg/kg/injection, schedule: Q04DX002 (ip), vehicle: saline with Tween-80 121 % of control | [8] 90 % of control | [5] 100 % of control | [13] 96 % of control | dose: 200.0 mg/kg/injection, schedule: Q04DX002 (ip), vehicle: saline with Tween-80 99 % of control | [15] 87 % of control | [16] 93 % of control | [14] 100 % of control and 86 % of control | dose: 400.0 mg/kg/injection, schedule: Q04DX002 (ip), vehicle: saline with Tween-80 99 % of control | [17] 99 % of control

CCCCC(NC(=O)C(F)(F)F)C(=O)O (stereo not drawn)
inactive: dose: 100.0 mg/kg/injection, schedule: Q01DX009 (ip), vehicle: carboxymethylcellulose (CMC) 105 % of control | dose: 200.0 mg/kg/injection, schedule: Q01DX009 (ip), vehicle: carboxymethylcellulose (CMC) 96 % of control

[O-][n+]1ccc(Cl)c2ccsc21
inactive: [6] 102 % of control | [7] 96 % of control | [8] 103 % of control | [13] 101 % of control | [15] 97 % of control | [17] 98 % of control

CC(=O)OC(CC/C(C)=C/COC1CCCCO1)C(C)(C)O (stereo not drawn)
inactive: [4] 102 % of control | [7] 95 % of control | [5] 103 % of control | [13] 98 % of control | [16] 105 % of control | [14] 96 % of control

ClC1=C(Cl)C2(Cl)C3C4CCC(C4)C3C1(Cl)C2(Cl)Cl (stereo not drawn)
inactive: [12] 121 % of control | dose: 400.0 mg/kg/injection, schedule: Q04DX003 (ip), vehicle: saline 108 % of control

C[n+]1ccsc1
inactive: [8] 104 % of control | [15] 103 % of control | [17] 97 % of control

NCc1ccc(F)cc1
inactive: [9] 102 % of control | [10] 95 % of control | [11] 100 % of control | dose: 200.0 mg/kg/injection, schedule: Q01DX009 (ip), vehicle: saline 95 % of control | [12] 92 % of control

CCCCC(CC)COC(=O)CC(O)C(=O)OCC(CC)CCCC (stereo not drawn)
inactive: [1] 103 % of control | [2] 100 % of control | [3] 103 % of control
